Source: paper PMC8020424, “Characterization of D-xylose reductase, XyrB, from Aspergillus niger” (Biotechnology Reports, 2021)
Read-outs that look alike come from different tables or passages of the source.

System: T1, XyrB
T1 construct: full-length intron-free codon-optimized gene in pET-28a(+), E. coli BL21(DE3)pLysS, HisTrap purified; AKR motif 22-277
Assay: NADPH consumption at […] nm, Michaelis-Menten fit
Format: biochemical, Aspergillus niger
Details: 0.2 mM NADPH, PBS pH 7.0, 25 °C

Compound	Km (read-out: Km)	Km (read-out: D-xylose / Km)
OC[C@H]1OC(O)[C@H](O)[C@@H](O)[C@H]1O (stereo partly drawn) [D-galactose]	12.5 mM	
OC1OC[C@@H](O)[C@H](O)[C@H]1O (stereo partly drawn) [D-xylose]		3.3 mM
OC1OC[C@H](O)[C@H](O)[C@H]1O (stereo partly drawn) [L-arabinose]	9.9 mM	
